Results published in publication PMC11952493 (bioRxiv, 2025).
Where no end group is shown, it is not given here.

Target: T1, Recombinant Human FAPα (Homo sapiens, UniProt Q12884)
T1 sequence (Q12884 1-760): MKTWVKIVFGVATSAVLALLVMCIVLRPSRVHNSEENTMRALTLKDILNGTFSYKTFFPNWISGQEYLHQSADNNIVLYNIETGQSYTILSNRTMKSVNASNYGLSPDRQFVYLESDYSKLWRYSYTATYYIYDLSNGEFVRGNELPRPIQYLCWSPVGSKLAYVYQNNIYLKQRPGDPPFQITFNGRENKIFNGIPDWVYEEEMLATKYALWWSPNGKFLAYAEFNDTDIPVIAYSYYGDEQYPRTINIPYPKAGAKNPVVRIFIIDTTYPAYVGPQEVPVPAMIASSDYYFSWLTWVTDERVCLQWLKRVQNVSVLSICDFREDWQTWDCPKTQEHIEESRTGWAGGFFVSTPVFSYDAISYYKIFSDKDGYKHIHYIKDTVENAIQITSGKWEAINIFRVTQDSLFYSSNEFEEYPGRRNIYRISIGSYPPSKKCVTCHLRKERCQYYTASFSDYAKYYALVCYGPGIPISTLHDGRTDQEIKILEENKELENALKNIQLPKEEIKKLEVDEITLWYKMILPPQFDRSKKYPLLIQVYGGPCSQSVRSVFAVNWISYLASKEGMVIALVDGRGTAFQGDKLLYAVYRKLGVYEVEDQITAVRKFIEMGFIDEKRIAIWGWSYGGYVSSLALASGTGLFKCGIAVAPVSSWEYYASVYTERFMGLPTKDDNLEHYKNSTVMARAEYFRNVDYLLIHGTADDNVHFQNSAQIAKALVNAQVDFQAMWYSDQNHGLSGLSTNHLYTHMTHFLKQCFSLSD
Experiment: Fluorogenic substrate cleavage assay with FAPα
Type: biochemical
Conditions: 200 μM substrate, 37°C; 10 nM FAPα, 2 nM DPP4, 6 nM DPP9, 3-6 nM PREP

| selectivity for FAPα over DPP4, DPP9 and PREP (in words) | Sequence |
| --- | --- |
| highest specificity | AACSFRINSLCG (also: sidechain bridge or staple (positions not given here)) [FAP-24] |
| highest specificity | AACVSFQNLDCG (also: sidechain bridge or staple (positions not given here)) [FAP-33] |
